In US5006545A, “Veterinary compositions against endoparasites containing cypermethrin and albendazole” (priority 1988, dated 1991):

Assays:
[1] = test system: Musca domestica (L3 larvas); assay: average body mass and hatching % of fly larvas/imagos after treatment; type: in vivo
From the text: (§1) For this purpose the activity of several pyrethroid insecticides has been tested per se or in combination with different benzimidazole type anthelmintics on flies (Musca domestica). […] This synergistic interaction was shown not only in the decrease of the therapeutical concentrations but also on the activity of the sublethal doses to the development. The body mass of the larvas is decreased and from the little aurelias evolved during the long development often deformed imagos, unsuitable for further multiplication were hatched out. Above all the synergistic interaction has made possible the decrease of the therapeutic dose of the orally administered insecticide.
(§2) For examining the interaction between benzimidazoles and pyrethroids the larvas of domestic flies in L3 status (Musca domestica WHO/SRS) were used as model organism.
(§3) A nutriment suitable for breeding fly larvas was prepared from yeast, milk, bran and water and the nutriment was portioned into plastic glasses. Acetonic strain solution was prepared from the active ingredients and after dilution the amounts necessary for achieving the desired active ingredient concentrations were added to the nutriment in the plastic glasses.
Fly larvas of L3 status were grown in identical manner as in an Example 1, on a nutriment having a total active ingredient concentration of 5 and 10 ppm.

[2] = test system: Musca domestica WHO/SRS (L3 larvas); assay: hatching of imagos from L3 fly larvas on treated nutriment; type: in vivo; details: 12 days
From the text: as §1, §2, §3
The examinations were carried out with total active ingredient concentrations of 1, 5, 10, 50, 100 and 200 ppm in 6 parallel tests per each concentration. Into the plastic glasses containing the treated culture medium 20--20 domestic fly-larvas of L3 status were placed after mass measurement. The glasses were covered by gauze and after 12 days the hatched imagos were counted. In the control containing only solvent the hatching ratio was 91%, the average weight of the hatched flies was 18.2 mg.

[3] = test system: horse bots (Gastrophylus larvas); assay: therapeutic dose / therapeutic index against horse bots; type: in vivo, Gastrophylus species (in horses); details: for Therapeutic index (selectivity): quotient of toxic (rat LD50) and therapeutic dose (horse bots)
Experimental: One of the most important characteristics of the pharmaceutical compositions is the quotient of toxic and therapeutic dosage, the so-called therapeutic index characterizing the security of use. The higher is this value, the smaller is the risk in use, the selective is the active ingredient.
On the basis of the results of the laboratory examinations and toxicity data the therapeutic dose usable for treating bot infection of horses was determined in field trials.
(§4) The therapeutic indexes of current anthelmintics and transmix each having insecticidal activity and suitable for per os administration are shown in Table 1.

[4] = acute per os toxicity (LD50), measured on rats; type: in vivo, rat; details: rat, in vivo, po
From the text: as §4

horses = horses (Vet. Med., 1985, Apr., p. 68); cited from earlier work
rats = assay: acute per os toxicity (LD50), measured on rats; type: in vivo, rat
From the text: as §4

[5] = 100 ppm total active ingredient
[6] = 200 ppm total active ingredient

Row | Compound | average body mass ([1]; 5 ppm total active ingredient) | hatching % ([1]; 5 ppm total active ingredient) | average body mass ([1]; 10 ppm total active ingredient) | hatching % ([1]; 10 ppm total active ingredient) | number of hatched imagos (from 120 L3) ([2]; 1 ppm total active ingredient) | number of hatched imagos (from 120 L3) ([2]; 5 ppm total active ingredient) | number of hatched imagos (from 120 L3) ([2]; 10 ppm total active ingredient) | number of hatched imagos (from 120 L3) ([2]; 50 ppm total active ingredient) | number of hatched imagos (from 120 L3) [2, 5] | number of hatched imagos (from 120 L3) [2, 6] | Therapeutic index (selectivity) [3] | LD50 [4] | side effects accompanying treatment (horses) | Therapeutic dose ([3]; against horse bots, per os) | Toxicity acute per os LD50 (rats)
1 | CC1(C)C(C=C(Cl)Cl)C1C(=O)OC(C#N)c1cccc(Oc2ccccc2)c1 (stereo not drawn) [Chinmix, α-cyano-3-(2,2-dichlorovinyl)-2,2-dimethyl-cyclopropan-carboxylic acid-3-phenoxybenzylester] | 10.3 | 53% | 7.8 | 41% | 90 | 62 | 47 | 27 | 4 | 0 | – | – | – | – | –
2 | CC1(C)[C@H](C=C(Cl)Cl)[C@H]1C(=O)O[C@H](C#N)c1cccc(Oc2ccccc2)c1 (relative stereo) [Transmix, α-cyano-3-(2,2-dichlorovinyl)-2,2-dimethyl-cyclopropan-carboxylic acid-3-phenoxybenzylester] | 12.9 | 98% | 9.6 | 84% | 108 | 112 | 89 | 64 | 39 | 18 | 2500 | 5000 mg/kg | – | – | –
3 | CCCSc1ccc2nc(NC(=O)OC)[nH]c2c1 [Albendazole, 5(6)-propylthio-benzimidazole-N-methylcarbamate] | 18.3 | 100% | 17.8 | 100% | 111 | 113 | 107 | 112 | 107 | 109 | – | – | – | – | –
4 | COP(=O)(OC)C(O)C(Cl)(Cl)Cl (stereo not drawn) [Trichlorfon, 2,2,2-trichloro-1-hydroxyethyl-phosphonic acid dimethylester] | – | – | – | – | – | – | – | – | – | – | 15 | 450 mg/kg | diarrhoea, frequent defecation and urination | – | –
5 | COP(=O)(OC)OC=C(Cl)Cl [Dichlorvos, 2,2-dichlorovinyl-phosphonic acid dimethylester] | – | – | – | – | – | – | – | – | – | – | 11 | 56 mg/kg | – | – | –
6 | dihydro-avermectine B1 [Ivermectine] | – | – | – | – | – | – | – | – | – | – | – | – | – | 0.2 mg/kg | 10 mg/kg
